The target of test [1] is T1, Corticotropin-releasing factor receptor 2/Corticotropin-releasing factor-binding protein (Homo sapiens, UniProt P24387+Q13324).
T1 sequence (Q13324 whole entry): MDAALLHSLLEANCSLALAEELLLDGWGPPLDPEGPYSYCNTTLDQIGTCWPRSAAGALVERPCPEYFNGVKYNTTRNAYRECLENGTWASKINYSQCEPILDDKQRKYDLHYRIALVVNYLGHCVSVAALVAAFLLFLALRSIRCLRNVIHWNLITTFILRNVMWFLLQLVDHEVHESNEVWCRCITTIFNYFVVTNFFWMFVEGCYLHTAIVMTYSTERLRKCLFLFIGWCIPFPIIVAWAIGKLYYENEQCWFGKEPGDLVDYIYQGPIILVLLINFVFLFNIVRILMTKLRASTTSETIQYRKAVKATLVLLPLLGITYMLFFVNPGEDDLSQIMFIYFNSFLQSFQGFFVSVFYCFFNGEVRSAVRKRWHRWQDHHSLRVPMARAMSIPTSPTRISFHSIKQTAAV
T1 sequence (P24387 whole entry): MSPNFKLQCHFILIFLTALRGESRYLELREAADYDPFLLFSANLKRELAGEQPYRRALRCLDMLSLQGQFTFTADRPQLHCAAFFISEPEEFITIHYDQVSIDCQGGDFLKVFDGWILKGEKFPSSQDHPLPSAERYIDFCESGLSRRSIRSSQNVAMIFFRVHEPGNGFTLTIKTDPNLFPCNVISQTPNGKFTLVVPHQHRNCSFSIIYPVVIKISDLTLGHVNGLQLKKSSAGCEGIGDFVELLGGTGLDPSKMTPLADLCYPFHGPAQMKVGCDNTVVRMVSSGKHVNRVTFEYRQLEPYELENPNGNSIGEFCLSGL
Nature of the test: activators of CRF receptor 2 with binding protein – uHTS hits, confirmation (AID 602473). Type of test: functional. As to conditions: read-out: EC50_Mean.

The target in test [2] is Luciferin 4-monooxygenase (Photinus pyralis, UniProt P08659). Nature of the test: firefly luciferase enzyme inhibitors, dose response, biochemical, luminescence (AID 1891).
A short description of test [3]: Luminescence Cell-Based Dose Confirmation HTS to Identify Inhibitors of Platelet Dense Granule Release. [Related pubchem assays: 1663 (Primary HTS), 1678 (Summary of Project)]. The format is functional.
The nature of test [4]: inhibitors of intracellular T. cruzi replication, confirmation, NIH3T3 host cells, beta-gal luminescence (AID 2044).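 Also: intracellular parasites grown in NIH/3T3 mouse fibroblasts as host cells; luminescent beta-galactosidase reporter signal from transgenic T. cruzi replicating inside host cells; inhibitors lower the luminescence signal.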 The format is functional, cell-based.
Test [5] is described as follows: cytotoxicity toward NIH3T3 fibroblasts, dose response, counter-screen, cell-based, ATP luminescence, mouse fibroblasts (AID 2010).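 Also: cells exposed to compound for about 90 hours before reading.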 Type of test: functional. (The purpose of a counterscreen is to sort out artefacts and off-target activity.)
The target of test [6] is Large T antigen (Simian virus 40, UniProt P03070). The format is functional, Betapolyomavirus macacae.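 Also: Confirmatory-stage PubChem screen for compounds that inhibit SV40 T antigen.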
Test [7] addresses T2, RNA-binding protein pos-1 (Caenorhabditis elegans, UniProt G5EF15).
T2 sequence (G5EF15 whole entry): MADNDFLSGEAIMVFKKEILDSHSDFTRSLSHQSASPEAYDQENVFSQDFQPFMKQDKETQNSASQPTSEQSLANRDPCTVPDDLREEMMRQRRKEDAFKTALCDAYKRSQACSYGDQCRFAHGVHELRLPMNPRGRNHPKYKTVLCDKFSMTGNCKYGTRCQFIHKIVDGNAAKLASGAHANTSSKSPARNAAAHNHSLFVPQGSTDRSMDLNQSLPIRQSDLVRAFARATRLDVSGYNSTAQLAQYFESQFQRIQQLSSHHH
Kind of test: inhibitors of POS-1/mex-3 RNA binding, dose response, biochemical, fluorescence polarization (AID 1964).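 Also: purified POS-1 fused to maltose binding protein made in E. coli; potency of compounds blocking POS-1 binding to fluorescent RNA.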 A general note: Polarisation of emitted light reports the rotation of a fluorescent probe.

For test [8], the target named is T3, Zinc finger protein mex-5 (Caenorhabditis elegans, UniProt Q9XUB2).
T3 sequence (Q9XUB2 whole entry): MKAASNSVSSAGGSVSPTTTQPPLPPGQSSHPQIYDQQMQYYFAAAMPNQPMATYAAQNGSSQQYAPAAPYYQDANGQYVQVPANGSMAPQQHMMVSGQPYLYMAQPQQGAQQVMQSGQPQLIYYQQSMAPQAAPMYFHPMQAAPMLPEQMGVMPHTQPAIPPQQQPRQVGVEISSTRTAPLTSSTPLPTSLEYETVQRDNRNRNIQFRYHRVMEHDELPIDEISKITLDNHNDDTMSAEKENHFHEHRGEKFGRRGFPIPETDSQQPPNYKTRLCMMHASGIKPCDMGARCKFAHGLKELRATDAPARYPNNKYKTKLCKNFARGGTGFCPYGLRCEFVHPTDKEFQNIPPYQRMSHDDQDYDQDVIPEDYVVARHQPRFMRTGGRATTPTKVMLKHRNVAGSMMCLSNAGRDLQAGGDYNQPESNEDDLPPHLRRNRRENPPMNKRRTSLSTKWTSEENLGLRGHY
Kind of test: MEX-5/TCR-2 RNA interaction inhibitors, dose response, biochemical, C. elegans, fluorescence polarization (AID 1960).

Test [9] deals with Heat shock protein HSP 90-alpha (Homo sapiens, UniProt P07900). Type of test: functional, organism-based.
Test [10] has as its target T4, Protein skinhead-1 (Caenorhabditis elegans, UniProt P34707).
T4 sequence (P34707 whole entry): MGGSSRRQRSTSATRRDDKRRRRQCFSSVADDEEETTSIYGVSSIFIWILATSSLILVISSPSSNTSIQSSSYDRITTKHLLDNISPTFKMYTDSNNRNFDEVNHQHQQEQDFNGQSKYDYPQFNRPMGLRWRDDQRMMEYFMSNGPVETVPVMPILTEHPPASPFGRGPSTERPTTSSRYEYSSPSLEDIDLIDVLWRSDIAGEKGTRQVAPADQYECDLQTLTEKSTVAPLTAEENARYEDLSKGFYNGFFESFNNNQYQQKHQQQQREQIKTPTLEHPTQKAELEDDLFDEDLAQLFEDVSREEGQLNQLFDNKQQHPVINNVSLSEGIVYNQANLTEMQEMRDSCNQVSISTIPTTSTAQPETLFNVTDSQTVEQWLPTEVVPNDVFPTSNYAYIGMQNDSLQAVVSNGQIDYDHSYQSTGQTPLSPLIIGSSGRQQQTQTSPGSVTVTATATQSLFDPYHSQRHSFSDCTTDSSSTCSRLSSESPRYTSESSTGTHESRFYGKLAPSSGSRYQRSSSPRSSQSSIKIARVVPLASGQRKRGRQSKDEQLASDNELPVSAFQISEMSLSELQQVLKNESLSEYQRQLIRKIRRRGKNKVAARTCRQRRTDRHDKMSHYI
Type of test: functional.

For test [11], the target named is FAD-linked sulfhydryl oxidase ALR (Homo sapiens, UniProt P55789). Kind of test: inhibitors of human ALR sulfhydryl oxidase, dose response, biochemical, H2O2 detection, luminescence, cherry-pick (AID 493248).

Active and inactive are the calls of the source. Rule as the data show it, for most assays here: actives have a measured EC50 and inactives only a lower limit.

Sequence of Luciferin 4-monooxygenase (P08659 whole entry): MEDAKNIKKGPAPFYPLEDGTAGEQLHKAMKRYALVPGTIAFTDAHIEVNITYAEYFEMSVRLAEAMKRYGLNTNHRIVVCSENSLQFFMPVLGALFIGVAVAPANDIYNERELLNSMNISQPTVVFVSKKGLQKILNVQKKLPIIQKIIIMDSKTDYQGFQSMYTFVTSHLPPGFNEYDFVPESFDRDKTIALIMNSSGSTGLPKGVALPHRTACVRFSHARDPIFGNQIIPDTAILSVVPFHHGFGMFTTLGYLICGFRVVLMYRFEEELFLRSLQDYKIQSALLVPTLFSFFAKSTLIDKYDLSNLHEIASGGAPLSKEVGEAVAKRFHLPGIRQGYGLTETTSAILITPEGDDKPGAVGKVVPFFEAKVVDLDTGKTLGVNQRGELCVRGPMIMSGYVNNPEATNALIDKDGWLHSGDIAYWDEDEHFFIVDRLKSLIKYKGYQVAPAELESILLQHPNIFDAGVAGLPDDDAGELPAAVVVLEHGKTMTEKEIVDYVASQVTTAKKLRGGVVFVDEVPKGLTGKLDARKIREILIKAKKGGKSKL
Sequence of Large T antigen (P03070 whole entry): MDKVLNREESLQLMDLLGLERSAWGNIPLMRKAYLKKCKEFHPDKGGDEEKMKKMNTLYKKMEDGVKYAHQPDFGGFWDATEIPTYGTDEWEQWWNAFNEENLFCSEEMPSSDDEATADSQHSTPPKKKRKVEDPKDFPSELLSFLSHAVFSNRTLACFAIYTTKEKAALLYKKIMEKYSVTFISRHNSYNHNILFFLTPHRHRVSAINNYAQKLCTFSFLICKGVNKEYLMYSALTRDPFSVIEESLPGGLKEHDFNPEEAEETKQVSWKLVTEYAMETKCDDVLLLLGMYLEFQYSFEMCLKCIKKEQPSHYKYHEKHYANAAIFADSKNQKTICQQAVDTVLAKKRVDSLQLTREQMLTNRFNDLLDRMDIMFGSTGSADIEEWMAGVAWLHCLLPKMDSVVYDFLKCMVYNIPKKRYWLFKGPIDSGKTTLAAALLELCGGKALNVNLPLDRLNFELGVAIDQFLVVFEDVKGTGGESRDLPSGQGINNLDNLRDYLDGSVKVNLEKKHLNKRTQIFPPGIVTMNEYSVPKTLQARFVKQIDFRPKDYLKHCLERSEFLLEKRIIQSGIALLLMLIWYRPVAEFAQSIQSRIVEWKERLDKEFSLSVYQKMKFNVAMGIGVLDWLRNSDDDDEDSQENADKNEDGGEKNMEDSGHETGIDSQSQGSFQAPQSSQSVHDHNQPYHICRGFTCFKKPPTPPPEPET
Sequence of FAD-linked sulfhydryl oxidase ALR (P55789 whole entry): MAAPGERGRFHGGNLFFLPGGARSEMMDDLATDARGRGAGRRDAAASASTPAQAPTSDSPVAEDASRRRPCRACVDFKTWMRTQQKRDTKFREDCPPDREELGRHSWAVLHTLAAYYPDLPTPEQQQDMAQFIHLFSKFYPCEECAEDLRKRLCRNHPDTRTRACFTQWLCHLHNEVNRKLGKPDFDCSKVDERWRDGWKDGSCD

Consider `CCN(C(=O)CN1C(=O)COc2ccc(S(=O)(=O)N3CCCCCC3)cc21)c1cccc(C)c1`, for which the EC50 in test [1] is 6.41 µM (active).

As to `CN(C)c1ccc(N/C=C/C(=O)c2ccc(F)cc2)cc1`, the EC50 in test [2] is 0.816 µM (active); in [3] it was 1.5 µM (active); in [4], 2.32 µM (active); in [5], > 30 µM (not active).

Turning to `CN(C)c1ccc(N/C=C/C(=O)c2ccccc2)cc1`, the half-inhibitory concentration (IC50) in [6] is 5.19 µM (active). Further, the EC50 is 0.654 µM (active) in test [2] and 0.93 µM (active) in test [3].

Turning to `Cc1c(N/C=C2\C(=O)NC(=O)N(Cc3ccccc3)C2=O)c(=O)n(-c2ccccc2)n1C`, the EC50 in [7] and in [8] was > 300 µM (not active) each time.

With `Oc1ccccc1-c1nc(NC2CCCC2)c2ccccc2n1`, in test [9], the AC50 is 4.23 µM (active).

Consider `NC(=O)c1c(NC(=O)c2c(F)cccc2F)sc2c1CCN(Cc1ccccc1)C2`, for which the EC50 in test [7] was 57.1 µM (active); in test [8] it was > 300 µM (not active).

On to `Brc1ccc(-c2nc(-c3ccccc3)no2)o1`, for which the IC50 in [10] is 14.1 µM (active).

With `Cc1ccc(Cl)c(OCC(=O)Nc2ccccc2C(=O)NC2CC2)c1`, the EC50 in [2] and in [3] was > 112 µM (not active) each time.

Consider `CC1CCN(C2CC(=O)N(c3ccc(Br)cc3Br)C2=O)CC1` (configuration not stated), for which the AC50 in [9] was < 0.195 µM (active).

As for `CCCCCN(C(=O)CCC(=O)OCC(=O)N1C(C)CCCC1C)c1c(N)n(CCCC)c(=O)[nH]c1=O` (configuration not stated), the EC50 in test [2] and in [3] was > 112 µM (not active) each time.

On to `c1ccc(OCc2cc(-c3ccccc3)no2)cc1`, for which the IC50 in test [10] was 68.7 µM (inactive).

As to `COc1cc(-c2csc(C)n2)ccc1O`, the IC50 in [6] is 4.9 µM (active). The AC50 in test [11] was 13.9 µM (active).

As to `COc1cc(/C=C2\SC(NS(=O)(=O)c3ccc(C)cc3)=NC2=O)c([N+](=O)[O-])cc1OC`, in test [6], the IC50 was 41.3 µM (active).

As for `Cc1cccc(CCNC(=O)c2cc(S(=O)(=O)N3CCCC3)cn2C)c1`, the EC50 in test [2] and in [3] was > 112 µM (not active) each time.

`Cc1cc(NC(=O)CSCC(=O)Nc2ccccc2N2CCCCC2)no1`: the EC50 in test [2] and in test [3] was > 112 µM (not active) in each case.

Consider `CC(=O)c1cnc2c(-c3ccc(Cl)cc3)c(C)nn2c1C`, for which the EC50 in test [2] is > 112 µM (not active); in test [3] it was 78.7 µM (active).

With `O=C(CCN1C(=O)/C(=C/c2cccs2)SC1=S)NC1=NCCS1`, in test [9], the half-maximal activity concentration (AC50) is 5.03 µM (active).

With `Cc1onc(-c2c(F)cccc2Cl)c1C(=O)Nc1nc2ccccc2[nH]1`, the IC50 in [10] is > 100 µM (inactive).

Consider `O=C(/C=C/c1ccc([N+](=O)[O-])cc1)NCc1cccs1`, for which the EC50 in test [2] was > 112 µM (not active); in [3] it was 57.2 µM (active).

With `CN(C)c1ccc(NS(=O)(=O)c2cc3c4c(c2)CC(=O)N4CCC3)cc1`, the IC50 in [6] was 69.8 µM (active).

As for `CC(=O)c1c(C(C)=O)c(C)n(-c2ccc(C(=O)O)cc2)c1C`, the EC50 in test [7] and in test [8] was > 300 µM (not active) each time.

In the case of `Cc1cc(C(F)(F)F)c2c(N)c(C(=O)Nc3cc(C)on3)sc2n1`, the EC50 is > 300 µM (inconclusive) in test [7] and 39.2 µM (active) in [8].

Regarding `Cn1nc(C(=O)Nc2nc3ccc(S(C)(=O)=O)cc3s2)ccc1=O`, the EC50 in [2] is 3.18 µM (active); in test [3] it was 7.45 µM (active).

For the compound `COc1ccc(NCC(O)Cn2cnc3c2c(=O)n(C)c(=O)n3C)cc1` (configuration not stated), the IC50 in [6] is 17.7 µM (active).

Turning to `COc1ccc(-c2nc(C[S+]([O-])CC(=O)NCc3ccco3)c(C)o2)cc1` (configuration not stated), the EC50 is > 112 µM (not active) in test [2] and 27.9 µM (active) in test [3].

As for `Cc1ccc2c(c1)COc1c3ccc(C(=O)N4CCOCC4)cc3nn1-2`, the EC50 is 29.6 µM (active) in test [2] and 20.9 µM (active) in [3].

Turning to `CN(O)C(=S)c1ccccc1`, the AC50 in test [9] was 0.521 µM (active).

As for `O=C(NCCOC(=O)C1COc2ccccc2O1)c1cccnc1` (configuration not stated), in test [1], the EC50 is > 53 µM (inactive).

Turning to `COc1cc2c(cc1OC)[C@@H](NC(=O)CCc1ccccc1)[C@H](OCc1ccccc1)C2`, in test [10], the IC50 was > 100 µM (inactive).

For the compound `C(/C=C/c1ccccn1)=C\c1ccccc1`, the IC50 in test [10] is 50.8 µM (inactive).

For the compound `COc1cccc(-n2cnnn2)c1`, the IC50 in test [10] was > 100 µM (inactive).

`CN(C)C(CNC(=O)c1cccc(S(=O)(=O)N2CCN(c3ccc(F)cc3)CC2)c1)c1ccccc1` (configuration not stated): the IC50 in test [10] is 63.4 µM (inactive).

On to `Cc1ccc(-c2nc3ccc(Br)cn3c2Cc2ccccc2C(F)(F)F)cc1`, for which the IC50 in test [10] is 75.5 µM (inactive).

As for `COC(=O)C1C2CC3c4[nH]c5cc(OC)ccc5c4CCN3CC2CC(OC(=O)CC(C)=O)C1OC` (configuration not stated), the IC50 in test [10] is > 100 µM (inactive).

Turning to `O=C(Nc1ccccc1Cl)c1cc(C2CCCN(C(=O)OCCF)C2)on1` (configuration not stated), the IC50 in test [10] is > 100 µM (inactive).

On to `O=C1NC[C@H](Cc2ccccc2)N(C[C@@H]2CCCN2C[C@H](Cc2ccc(O)cc2)N2C[C@H](Cc3ccccc3)N(CC3CCCCCC3)C(=O)C2=O)C1=O`, for which the IC50 in [10] was > 100 µM (inactive).

With `COc1ccc(OC)c(/N=C/c2c(O)oc3ccccc3c2=O)c1`, the EC50 in [7] and in [8] was > 300 µM (inconclusive) throughout.

For `Cc1ccc(S(=O)(=O)/N=C(\c2ccc(F)cc2)n2c(C)nc3ccccc32)cc1`, the EC50 in test [2] and in test [3] was > 112 µM (not active) throughout.

Take `COc1ccc(C2CC(=O)C(/C=N/CCCO)=C(O)C2)cc1` (configuration not stated): the EC50 was 34.8 µM (active) in [7] and 37.9 µM (active) in test [8].

Consider `CC(=O)Oc1cc(O)c2c(=O)c(OC(C)=O)c(-c3ccc(OC(C)=O)c(OC(C)=O)c3)oc2c1`, for which, in test [6], the IC50 was 14.4 µM (active).

Broadly, the IC50 is the concentration that gives 50% inhibition. The term AC50 denotes the concentration at which the activity in the assay is half-maximal.

For the origin of these results see ChEMBL document CHEMBL1201862, “PubChem BioAssay data set” (2004).
